# Reference: US10793576B2, “Compound used as Bruton's tyrosine kinase inhibitor and preparation method and application thereof” (Chengdu Brilliant Pharmaceutical Co., LTD., priority 2017, dated 2020)
# pIC50: −log10 of the molar value.
# Tests used:
# DOHH2 cells = experiment: Cell proliferation inhibition in vitro, DOHH2 cells by CTG assay; type: cell-based; details: Homo sapiens, DOHH-2, 72 hours, read-out: Inhibitions of cell activities IC50 (nM) DOHH2
# Method: (§1) Test Example 2: Determination of the Inhibition of Cell Proliferation Inhibitory Activity in
# (§2) vitro of compounds using different cell lines
# (§3) 2: Preparation of the Compounds:
# (§4) The compounds to be tested were diluted with DMSO to prepare a mother liquor at a final concentration of 10 mM for later use.
# 3.2 Test of DOHH2 Cells by CTG Assay
# (§5) Logarithmic growth phase cells were collected, counted and resuspended in complete medium. The cell concentration was adjusted to a suitable concentration (determined according to the cell density optimization test results), and seeded to 96-well plate and 100 μl of the cell suspension was added to each well. The cells were incubated in an incubator at 37° C., 100% relative humidity and 5% C02 for 24 hours.
# The compounds to be tested were diluted with the medium to the set corresponding action concentration, and the cells were added at 10 µl/well. The cells were incubated in an incubator set at 37° C., 100% relative humidity and 5% C02 for 72 hours.
# The medium was aspirated and discarded, and 30 μl of test reagent was added. The plate was gentle shaken away from the light to lyse the cells.
# (§6) As: OA of the sample (cell+test reagent+test compound)
# (§7) Ac: OA of the negative control (cell+test reagent+DMSO)
# (§8) Ab: OA of the positive control (medium+test reagent+DMSO)
# (§9) IC50 curve fitting was performed using the software Graphpad Prism 5 or XLfit and IC50 values were calculated.
# BTK kinase = BTK kinase (Homo sapiens (Human), UniProt Q06187); experiment: In vitro assay for the inhibition of BTK kinase activity (Mobility-Shift Assay); type: biochemical
# Sequence of BTK kinase (Q06187 whole entry): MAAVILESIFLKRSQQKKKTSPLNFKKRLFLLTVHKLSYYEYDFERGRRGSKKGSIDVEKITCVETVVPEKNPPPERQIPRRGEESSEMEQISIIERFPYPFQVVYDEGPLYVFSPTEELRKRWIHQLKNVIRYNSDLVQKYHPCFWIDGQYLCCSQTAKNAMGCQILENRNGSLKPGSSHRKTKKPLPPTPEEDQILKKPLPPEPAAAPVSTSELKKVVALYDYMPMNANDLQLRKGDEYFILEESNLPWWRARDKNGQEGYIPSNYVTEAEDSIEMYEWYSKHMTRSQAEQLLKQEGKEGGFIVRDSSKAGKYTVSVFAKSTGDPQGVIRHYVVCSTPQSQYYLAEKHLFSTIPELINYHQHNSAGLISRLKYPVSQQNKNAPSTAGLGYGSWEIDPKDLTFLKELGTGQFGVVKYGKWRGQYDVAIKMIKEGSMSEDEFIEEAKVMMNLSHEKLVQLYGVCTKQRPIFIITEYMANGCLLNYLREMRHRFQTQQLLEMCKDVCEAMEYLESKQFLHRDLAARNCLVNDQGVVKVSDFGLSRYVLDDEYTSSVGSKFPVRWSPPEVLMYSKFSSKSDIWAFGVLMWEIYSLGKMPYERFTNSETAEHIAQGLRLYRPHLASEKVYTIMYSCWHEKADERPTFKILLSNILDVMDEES
# Text: Mobility-Shift Assay, which is microfluidic chip technology, applies the basic concept of capillary electrophoresis to microfluidic environments. The substrate used for the experiment is a polypeptide with a fluorescent label. Under the action of enzyme in the reaction system, the substrate is transformed into a product, and the charge the substrate carries also changes accordingly. The use of the charge difference between the substrate and the product involved in Mobility-Shift Assay achieves the separating of the two, and they are tested respectively. The test results are expressed by conversion rates.
# (3) 100% DMSO was added to the positive control well and the negative control well, respectively;
# TMD8 cells = experiment: Cell proliferation inhibition in vitro, TMD8 cells by CCK-8 method; type: cell-based; details: Homo sapiens, 72 hours, read-out: Inhibitions of cell activities IC50 (nM) TMD8
# Method: as §1, §2, §3, §4
# (§10) 3.1. Test of TMD8 and OCI-ly10 Cells by CCK-8 Method
# as §5
# (§11) The compounds to be tested were diluted with the medium to the set corresponding action concentration, and the cells were added at 25 µl/well. The cells were incubated in an incubator at 37° C., 100% relative humidity and 5% C02 for 72 hours.
# (§12) The medium was aspirated and discarded, and a complete medium containing 10% of the test reagent was added and the obtained system was incubated in a 37° C. incubator for 1 hour-4 hours.
# as §6, §7, §8, §9
# OCI-LY10 cells = experiment: Cell proliferation inhibition in vitro, OCI-ly10 cells by CCK-8 method; type: cell-based; details: Homo sapiens, 72 hours, read-out: Inhibitions of cell activities IC50 (nM) OCI-LY10
# Method: as §1, §2, §3, §4, §10, §5, §11, §12, §6, §7, §8, §9
SMILES,pIC50 (BTK kinase),IC50 (OCI-LY10 cells),IC50 (DOHH2 cells),IC50 (TMD8 cells)
"CC#CC(=O)N1CC2(CC2)C[C@H]1c1nc(-c2ccc(C(=O)Nc3ccccn3)cc2)c2c(N)nccn12 [Example 1, (S)-4-(8-amino-3-(5-(but-2-ynoyl)-5-azaspiro[2.4]heptan-6-yl)imidazo[1,5-a]pyrazin-1-yl)-N-(pyridin-2-yl)benzamide]",7.08,,> 1000 nM,
CC#CC(=O)N1CC2CC1(c1nc(-c3ccc(C(=O)Nc4ccccn4)cc3)c3c(N)nccn13)CO2 (stereo not drawn) [Example 10],7.14,2.1 nM,> 1000 nM,6.3 nM
CC#CC(=O)N1C2CCC1(c1nc(-c3ccc(C(=O)Nc4ccccn4)cc3)c3c(N)nccn13)COC2 (stereo not drawn) [Example 12],7.85,7.4 nM,129 nM,4.3 nM
CC#CC(=O)N1C2C[C@@H](C1c1nc(-c3ccc(C(=O)Nc4ccccn4)cc3)c3c(N)nccn13)N(C(C)C)C2 (stereo partly drawn) [Example 17],7.32,,> 1000 nM,
"CC#CC(=O)N1[C@@H]2CC[C@@H](C2)[C@H]1c1nc(-c2ccc(C(=O)Nc3ccccn3)cc2)c2c(N)nccn12 [Example 23, 4-(8-amino-3-((1R,3S,4S)-2-(but-2-ynoyl)-2-azabicyclo[2.2.1]heptan-3-yl)imidazo [1,5-a]pyrazin-1-yl)-N-(pyridin-2-yl)benzamide]",7.31,2.4 nM,> 1000 nM,1.1 nM
C=CC(=O)N1CCC2CC21c1nc(-c2ccc(C(=O)Nc3ccccn3)cc2)c2c(N)nccn12 (stereo not drawn) [Example 32],7.24,,> 1000 nM,
C=CC(=O)N1C[C@H]2[C@@H](C1c1nc(-c3ccc(C(=O)Nc4cc(C(F)(F)F)ccn4)cc3)c3c(N)nccn13)C2(C)C (stereo partly drawn) [Example 44],7.47,1.3 nM,717 nM,7.8 nM
C=CC(=O)N1C2CCC1(c1nc(-c3ccc(C(=O)Nc4cc(C(F)(F)F)ccn4)cc3)c3c(N)nccn13)COC2 (stereo not drawn) [Example 48],8.68,0.46 nM,103 nM,0.31 nM
CC#CC(=O)N1C2CCC1(c1nc(-c3ccc(C(=O)Nc4cc(C(F)(F)F)ccn4)cc3)c3c(N)nccn13)COC2 (stereo not drawn) [Example 49],8.32,3.4 nM,436 nM,6.4 nM
C=CC(=O)N1C2CN[C@@H](C2)C1c1nc(-c2ccc(C(=O)Nc3cc(C)ccn3)cc2)c2c(N)nccn12 (stereo partly drawn) [Example 66],7.47,,> 1000 nM,
CC#CC(=O)N1C2CN[C@@H](C2)C1c1nc(-c2ccc(C(=O)Nc3cc(C)ccn3)cc2)c2c(N)nccn12 (stereo partly drawn) [Example 67],7.16,,> 1000 nM,
C=CC(=O)N1C2CN[C@@H](C2)C1c1nc(-c2ccc(C(C)(O)c3ccccc3)cc2)c2c(N)nccn12 (stereo partly drawn) [Example 86],7.54,,917 nM,
CC#CC(=O)N1C2CN[C@@H](C2)C1c1nc(-c2ccc(C(C)(O)c3ccccc3)cc2)c2c(N)nccn12 (stereo partly drawn) [Example 87],7.38,,786 nM,

# Further molecules by rising pIC50 (BTK kinase), results first:
pIC50 (BTK kinase),IC50 (OCI-LY10 cells),SMILES,IC50 (DOHH2 cells),IC50 (TMD8 cells)
7.62,,"C=CC(=O)N1CC2(CC2)C[C@H]1c1nc(-c2ccc(C(=O)Nc3ccccn3)cc2)c2c(N)nccn12 [Example 2, (S)-4-(3-(5-acryloyl-5-azaspiro[2.4]heptan-6-yl)-8-aminoimidazo[1,5-a]pyrazin-1-yl)-N-(pyridin-2-yl)benzamide]",917 nM,
7.76,17.6 nM,C=CC(=O)N1C2C[C@@H](C1c1nc(-c3ccc(C(=O)Nc4ccccn4)cc3)c3c(N)nccn13)N(C)C2 (stereo partly drawn) [Example 15],716 nM,64.5 nM
7.77,1.1 nM,CC#CC(=O)N1C[C@H]2[C@@H](C1c1nc(-c3ccc(C(=O)Nc4cc(C(F)(F)F)ccn4)cc3)c3c(N)nccn13)C2(C)C (stereo partly drawn) [Example 45],285 nM,6.4 nM
7.89,3.9 nM,C=CC(=O)N1C2CC[C@@H](C2)C1c1nc(-c2ccc(C(=O)Nc3cc(C)ccn3)cc2)c2c(N)nccn12 (stereo partly drawn) [Example 62],179 nM,2.8 nM
7.90,1.8 nM,CC#CC(=O)N1C2CN[C@@H](C2)C1c1nc(-c2ccc(C(=O)Nc3ccccn3)cc2)c2c(N)nccn12 (stereo partly drawn) [Example 14],> 1000 nM,7.5 nM
8.02,3.1 nM,C=CC(=O)N1C2C[C@@H](C1c1nc(-c3ccc(C(=O)Nc4ccccn4)cc3)c3c(N)nccn13)N(C(C)C)C2 (stereo partly drawn) [Example 16],> 1000 nM,1.6 nM
8.04,0.21 nM,CC#CC(=O)N1C[C@H]2[C@@H]([C@H]1c1nc(-c3ccc(C(=O)Nc4ccccn4)cc3)c3c(N)nccn13)C2(C)C [Example 6],> 1000 nM,5.4 nM
8.28,0.33 nM,C=CC(=O)N1CC2CCCC2C1c1nc(-c2ccc(C(=O)Nc3cc(C(F)(F)F)ccn3)cc2)c2c(N)nccn12 (stereo not drawn) [Example 42],104 nM,0.26 nM
8.35,3.5 nM,CC#CC(=O)N1CC2CCCC2C1c1nc(-c2ccc(C(=O)Nc3ccccn3)cc2)c2c(N)nccn12 (stereo not drawn) [Example 4],673 nM,2.1 nM
8.36,0.42 nM,CC#CC(=O)N1CC2CCCC2C1c1nc(-c2ccc(C(=O)Nc3cc(C(F)(F)F)ccn3)cc2)c2c(N)nccn12 (stereo not drawn) [Example 43],217 nM,2.3 nM
8.37,3.4 nM,C=CC(=O)N1C2C[C@@H](C1c1nc(-c3ccc(C(=O)Nc4cc(C(F)(F)F)ccn4)cc3)c3c(N)nccn13)N(C(C)=O)C2 (stereo partly drawn) [Example 56],74 nM,5.9 nM
8.38,0.37 nM,C=CC(=O)N1C2CC[C@@H](C2)C1c1nc(-c2ccc(C(=O)Nc3cc(C(F)(F)F)ccn3)cc2)c2c(N)nccn12 (stereo partly drawn) [Example 46],94.3 nM,3.4 nM
8.48,0.67 nM,C=CC(=O)N1C2CN[C@@H](C2)C1c1nc(-c2ccc(C(=O)Nc3ccccn3)cc2)c2c(N)nccn12 (stereo partly drawn) [Example 13],138 nM,0.38 nM
8.55,0.13 nM,C=CC(=O)N1CC2CC1(c1nc(-c3ccc(C(=O)Nc4ccccn4)cc3)c3c(N)nccn13)CO2 (stereo not drawn) [Example 9],74.3 nM,0.2 nM
8.62,0.35 nM,C=CC(=O)N1C2CN[C@@H](C2)C1c1nc(-c2ccc(C(=O)Nc3cc(C(F)(F)F)ccn3)cc2)c2c(N)nccn12 (stereo partly drawn) [Example 52],174 nM,6.4 nM
8.64,1.87 nM,C=CC(=O)N1C2C[C@@H](C1c1nc(-c3ccc(C(=O)Nc4cc(C(F)(F)F)ccn4)cc3)c3c(N)nccn13)N(C(C)C)C2 (stereo partly drawn) [Example 55],97 nM,0.48 nM
8.74,1.3 nM,CC#CC(=O)N1C2CN[C@@H](C2)C1c1nc(-c2ccc(C(=O)Nc3cc(C(F)(F)F)ccn3)cc2)c2c(N)nccn12 (stereo partly drawn) [Example 53],166 nM,0.75 nM
8.82,0.64 nM,C=CC(=O)N1C2C[C@@H](C1c1nc(-c3ccc(C(=O)Nc4cc(C(F)(F)F)ccn4)cc3)c3c(N)nccn13)N(C)C2 (stereo partly drawn) [Example 54],143 nM,0.15 nM
